In patent US20160235727A1, “NOVEL PYRROLIDINE DERIVED BETA 3 ADRENERGIC RECEPTOR AGONISTS” (Merck Sharp & Dohme Corp., priority 2013, published 2016):

Molecular target: T1, human β3-AR (Homo sapiens, UniProt P13945)
T1 construct: expressed in transfected cells; host or cells: CHO (Chinese hamster ovary) cells, stably transfected
Assay: cAMP functional agonist assay (LANCE TR-FRET) in CHO cells expressing cloned human β3-AR
Type: cell-based
Conditions: for EC50: CHO cells stably expressing cloned human β3-adrenoceptor, cAMP release, read-out: Human β3-AR Agonism EC50; for Fold drop in potency vs. 2-chloropyridine analog: EC50 of comparative example divided by EC50 of corresponding 2-chloropyridine compound; for Human β3-AR Agonist Activity (%): percent maximum activation relative to isoproterenol

T1 sequence (P13945 whole entry): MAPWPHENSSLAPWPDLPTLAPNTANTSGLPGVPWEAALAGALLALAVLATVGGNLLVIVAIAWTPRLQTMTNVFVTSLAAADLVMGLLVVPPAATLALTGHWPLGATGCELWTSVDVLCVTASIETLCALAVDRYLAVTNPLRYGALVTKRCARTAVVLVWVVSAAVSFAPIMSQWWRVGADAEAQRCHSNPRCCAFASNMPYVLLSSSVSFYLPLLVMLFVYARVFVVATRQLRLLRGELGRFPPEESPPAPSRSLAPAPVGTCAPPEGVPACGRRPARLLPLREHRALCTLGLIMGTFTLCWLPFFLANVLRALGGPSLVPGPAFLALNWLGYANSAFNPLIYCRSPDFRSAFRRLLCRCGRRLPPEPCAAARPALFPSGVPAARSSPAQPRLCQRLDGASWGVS

EC50 | Fold drop in potency vs. 2-chloropyridine analog | Human β3-AR Agonist Activity (%) | SMILES
59 nM | 4.3 fold | 101% | Cc1nnc(-c2cncc(CN(C)C(=O)c3ccc(C[C@@H]4CC[C@H]([C@H](O)c5ccccc5)N4)cc3)c2)o1 [Example 36-B, 4-(((2S,5R)-5-((R)-hydroxy(phenyl)methyl)pyrrolidin-2-yl)methyl)-N-methyl-N-((5-(5-methyl-1,3,4-oxadiazol-2-yl)pyridin-3-yl)methyl)benzamide]
27 nM | – | 94% | CN(Cc1cncc(-c2nnn[nH]2)c1)C(=O)c1ccc(C[C@@H]2CC[C@H]([C@H](O)c3ccc(Cl)nc3)N2)cc1 [Example 37-A, N-((5-(1H-tetrazol-5-yl)pyridin-3-yl)methyl)-4-(((2S,5R)-5-((R)-(6-chloropyridin-3-yl)(hydroxy)methyl)pyrrolidin-2-yl)methyl)-N-methylbenzamide]
63 nM | 2.4 fold | 101% | CN(Cc1cncc(-c2nn[nH]n2)c1)C(=O)c1ccc(C[C@@H]2CC[C@H]([C@H](O)c3ccccc3)N2)cc1 [Example 37-B, N-((5-(1H-tetrazol-5-yl)pyridin-3-yl)methyl)-4-(((2S,5R)-5-((R)-hydroxy(phenyl)methyl)pyrrolidin-2-yl)methyl)-N-methylbenzamide]
8 nM | – | 58% | CN(Cc1cncc(F)c1)C(=O)c1ccc(C[C@@H]2CC[C@H]([C@H](O)c3ccc(Cl)nc3)N2)cc1 [Example 38-A, 4-(((2S,5R)-5-((R)-(6-chloropyridin-3-yl)(hydroxy)methyl)pyrrolidin-2-yl)methyl)-N-((5-fluoropyridin-3-yl)methyl)-N-methylbenzamide]
7 nM | 0.9 fold | 100% | CN(Cc1cncc(F)c1)C(=O)c1ccc(C[C@@H]2CC[C@H]([C@H](O)c3ccccc3)N2)cc1 [Example 38-B, N-((5-fluoropyridin-3-yl)methyl)-4-(((2S,5R)-5-((R)-hydroxy(phenyl)methyl)pyrrolidin-2-yl)methyl)-N-methylbenzamide]
1 nM | – | 96% | Cc1cc(CN(C)C(=O)c2ccc(C[C@@H]3CC[C@H]([C@H](O)c4ccc(Cl)nc4)N3)cc2)cnc1F [Example 39-A, 4-(((2S,5R)-5-((R)-(6-chloropyridin-3-yl)(hydroxy)methyl)pyrrolidin-2-yl)methyl)-N-((6-fluoro-5-methylpyridin-3-yl)methyl)-N-methylbenzamide]
2 nM | 3.8 fold | 104% | Cc1cc(CN(C)C(=O)c2ccc(C[C@@H]3CC[C@H]([C@H](O)c4ccccc4)N3)cc2)cnc1F [Example 39-B]
7 nM | 14.1 fold | 103% | Cc1cc(CN(C)C(=O)c2ccc(C[C@@H]3CC[C@H]([C@H](O)c4cccnc4)N3)cc2)cnc1F [Example 39-H]
12 nM | – | 111% | CN(Cc1cnccn1)C(=O)c1ccc(C[C@@H]2CC[C@H]([C@H](O)c3ccc(Cl)nc3)N2)cc1 [Example 40-A, 4-(((2S,5R)-5-((R)-(6-chloropyridin-3-yl)(hydroxy)methyl)pyrrolidin-2-yl)methyl)-N-methyl-N-(pyrazin-2-ylmethyl)benzamide]
17 nM | 1.5 fold | 99% | CN(Cc1cnccn1)C(=O)c1ccc(C[C@@H]2CC[C@H]([C@H](O)c3ccccc3)N2)cc1 [Example 40-B, 4-(((2S,5R)-5-((R)-hydroxy(phenyl)methyl)pyrrolidin-2-yl)methyl)-N-methyl-N-(pyrazin-2-ylmethyl)benzamide]
567 nM | 48.6 fold | 86% | CN(Cc1cnccn1)C(=O)c1ccc(C[C@@H]2CC[C@H]([C@H](O)c3cccc(Cl)c3)N2)cc1 [Example 40-D, 4-(((2S,5R)-5-((R)-(3-chlorophenyl)(hydroxy)methyl)pyrrolidin-2-yl)methyl)-N-methyl-N-(pyrazin-2-ylmethyl)benzamide]
19 nM | 1.6 fold | 100% | CN(Cc1cnccn1)C(=O)c1ccc(C[C@@H]2CC[C@H]([C@H](O)c3ccc(Cl)cc3)N2)cc1 [Example 40-G, 4-(((2S,5R)-5-((R)-(4-chlorophenyl)(hydroxy)methyl)pyrrolidin-2-yl)methyl)-N-methyl-N-(pyrazin-2-ylmethyl)benzamide]
373 nM | 32.0 fold | 87% | CN(Cc1cnccn1)C(=O)c1ccc(C[C@@H]2CC[C@H]([C@H](O)c3cncc(F)c3)N2)cc1 [Example 40-R, 4-(((2S,5R)-5-((R)-(5-fluoropyridin-3-yl)(hydroxy)methyl)pyrrolidin-2-yl)methyl)-N-methyl-N-(pyrazin-2-ylmethyl)benzamide]
3130 nM | 268.2 fold | 60% | Cc1cc([C@@H](O)[C@H]2CC[C@@H](Cc3ccc(C(=O)N(C)Cc4cnccn4)cc3)N2)cnc1Cl [Example 40-S, 4-(((2S,5R)-5-((R)-(6-chloro-5-methylpyridin-3-yl)(hydroxy)methyl)pyrrolidin-2-yl)methyl)-N-methyl-N-(pyrazin-2-ylmethyl)benzamide]
2 nM | – | 98% | CC(c1cnccn1)N(C)C(=O)c1ccc(C[C@@H]2CC[C@H]([C@H](O)c3ccc(Cl)nc3)N2)cc1 (stereo partly drawn) [Example 41-A, 4-(((2S,5R)-5-((R)-(6-chloropyridin-3-yl)(hydroxy)methyl)pyrrolidin-2-yl)methyl)-N-methyl-N-(1-(pyrazin-2-yl)ethyl)benzamide]
16 nM | 9.1 fold | 109% | CC(c1cnccn1)N(C)C(=O)c1ccc(C[C@@H]2CC[C@H]([C@H](O)c3ccccc3)N2)cc1 (stereo partly drawn) [Example 41-B, 4-(((2S,5R)-5-((R)-hydroxy(phenyl)methyl)pyrrolidin-2-yl)methyl)-N-methyl-N-(1-(pyrazin-2-yl)ethyl)benzamide]
6 nM | 3.5 fold | 83% | CC(c1cnccn1)N(C)C(=O)c1ccc(C[C@@H]2CC[C@H]([C@H](O)c3ccc(F)cc3)N2)cc1 (stereo partly drawn) [Example 41-F, 4-(((2S,5R)-5-((R)-(4-fluorophenyl)(hydroxy)methyl)pyrrolidin-2-yl)methyl)-N-methyl-N-(1-(pyrazin-2-yl)ethyl)benzamide]
3 nM | – | 94% | CN(Cc1ccnnc1)C(=O)c1ccc(C[C@@H]2CC[C@H]([C@H](O)c3ccc(Cl)nc3)N2)cc1 [Example 42-A, 4-(((2S,5R)-5-((R)-(6-chloropyridin-3-yl)(hydroxy)methyl)pyrrolidin-2-yl)methyl)-N-methyl-N-(pyridazin-4-ylmethyl)benzamide]
55 nM | 16.1 fold | 111% | CN(Cc1ccnnc1)C(=O)c1ccc(C[C@@H]2CC[C@H]([C@H](O)c3ccccc3)N2)cc1 [Example 42-B, 4-(((2S,5R)-5-((R)-hydroxy(phenyl)methyl)pyrrolidin-2-yl)methyl)-N-methyl-N-(pyridazin-4-ylmethyl)benzamide]
> 10000 nM | – | 45% | Cc1nnc2ccc(CN(C)C(=O)c3ccc(C[C@@H]4CC[C@H]([C@H](O)c5ccc(Cl)nc5)N4)cc3)cn12 [Example 43-A, 4-(((2S,5R)-5-((R)-(6-chloropyridin-3-yl)(hydroxy)methyl)pyrrolidin-2-yl)methyl)-N-methyl-N-((3-methyl-[1,2,4]triazolo[4,3-a]pyridin-6-yl)methyl)benzamide]
1620 nM | <0.12 fold | 79% | Cc1nnc2ccc(CN(C)C(=O)c3ccc(C[C@@H]4CC[C@H]([C@H](O)c5ccccc5)N4)cc3)cn12 [Example 43-B, 4-(((2S,5R)-5-((R)-hydroxy(phenyl)methyl)pyrrolidin-2-yl)methyl)-N-methyl-N-((3-methyl-[1,2,4]triazolo[4,3-a]pyridin-6-yl)methyl)benzamide]
2 nM | – | 99% | CN(Cc1nc2ccsc2c(=O)[nH]1)C(=O)c1ccc(C[C@@H]2CC[C@H]([C@H](O)c3ccc(Cl)nc3)N2)cc1 [Example 44-A, 4-(((2S,5R)-5-((R)-(6-chloropyridin-3-yl)(hydroxy)methyl)pyrrolidin-2-yl)methyl)-N-methyl-N-((4-oxo-3,4-dihydrothieno[3,2-d]pyrimidin-2-yl)methyl)benzamide]
4 nM | 1.7 fold | 97% | CN(Cc1nc2ccsc2c(=O)[nH]1)C(=O)c1ccc(C[C@@H]2CC[C@H]([C@H](O)c3ccccc3)N2)cc1 [Example 44-B, 4-(((2S,5R)-5-((R)-hydroxy(phenyl)methyl)pyrrolidin-2-yl)methyl)-N-methyl-N-((4-oxo-3,4-dihydrothieno[3,2-d]pyrimidin-2-yl)methyl)benzamide]
25 nM | – | 90% | CN(Cc1nc2ccccc2c(=O)n1C)C(=O)c1ccc(C[C@@H]2CC[C@H]([C@H](O)c3ccc(Cl)nc3)N2)cc1 [Example 45-A, 4-(((2S,5R)-5-((R)-(6-chloropyridin-3-yl)(hydroxy)methyl)pyrrolidin-2-yl)methyl)-N-methyl-N-((3-methyl-4-oxo-3,4-dihydroquinazolin-2-yl)methyl)benzamide]
